The term IC50 denotes the concentration needed to halve the response being measured.

Data set [1] in a line: DRUGMATRIX: Atrial Natriuretic Factor (ANF) radioligand binding (ligand: [125I] ANF (rat)). The data set is classed as cell membranes, Cavia porcellus, Dunkin-Hartley, Adrenal gland, Membrane. The note with it: Not Active = under 50% inhibition at 10 µM.
For data set [2], the target named is T1, Cysteinyl leukotriene receptor 1 (Homo sapiens, UniProt Q9Y271). Note: in other assays of this panel Not Active means under 50% inhibition at 10 µM.
T1 sequence (Q9Y271 whole entry): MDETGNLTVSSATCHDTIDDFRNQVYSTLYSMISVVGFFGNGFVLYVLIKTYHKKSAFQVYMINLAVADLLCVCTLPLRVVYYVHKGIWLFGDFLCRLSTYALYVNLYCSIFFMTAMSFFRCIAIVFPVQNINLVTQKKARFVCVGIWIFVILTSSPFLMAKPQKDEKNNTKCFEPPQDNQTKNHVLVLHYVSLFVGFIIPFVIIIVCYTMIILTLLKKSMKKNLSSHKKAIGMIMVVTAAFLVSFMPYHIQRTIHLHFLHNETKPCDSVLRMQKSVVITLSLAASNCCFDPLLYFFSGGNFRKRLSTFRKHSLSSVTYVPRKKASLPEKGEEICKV
In kind it is cell membranes, Membrane. The conditions noted are these: cho-k1.

Data set [3] concerns the target Melanocortin receptor 4 (Homo sapiens, UniProt P32245). The data set is classed as cell membranes, HEK293, Membrane. The conditions noted are these: hek293. Note: in other assays of this panel Not Active means under 50% inhibition at 10 µM.
For data set [4], the target named is T2, Amine oxidase [flavin-containing] A (Homo sapiens, UniProt P21397).
T2 sequence (P21397 whole entry): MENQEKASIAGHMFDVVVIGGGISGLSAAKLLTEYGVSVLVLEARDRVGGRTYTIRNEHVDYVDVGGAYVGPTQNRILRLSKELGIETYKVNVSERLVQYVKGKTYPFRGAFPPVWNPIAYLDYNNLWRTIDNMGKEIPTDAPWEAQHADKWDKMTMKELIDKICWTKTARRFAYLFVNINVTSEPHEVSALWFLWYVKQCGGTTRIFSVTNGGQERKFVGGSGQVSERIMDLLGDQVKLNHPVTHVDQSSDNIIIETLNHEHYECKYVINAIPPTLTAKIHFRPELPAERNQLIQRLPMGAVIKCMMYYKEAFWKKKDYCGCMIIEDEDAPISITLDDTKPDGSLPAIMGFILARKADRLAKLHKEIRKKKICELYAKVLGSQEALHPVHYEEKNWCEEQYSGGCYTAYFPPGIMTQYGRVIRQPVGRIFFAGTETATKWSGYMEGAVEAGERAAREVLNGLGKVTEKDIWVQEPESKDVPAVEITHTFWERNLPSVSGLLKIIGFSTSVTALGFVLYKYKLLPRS
Nature of the data set: DRUGMATRIX: Monoamine Oxidase MAO-A enzyme inhibition (substrate: Kynuramine). Also on record: species or system BTI-TN-5B1-4. The note with it: bti-tn-5b1-4; Not Active = under 50% inhibition at 10 µM.

For data set [5], the target named is Receptor tyrosine-protein kinase erbB-2 (Homo sapiens, UniProt P04626). As to the kind of experiment: biochemical. In kind it is cell-based, Insect cells.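 Note: inhibition of HER2 kinase enzyme activity, measured with Poly(Glu:Tyr) as the phosphorylation substrate; in other assays of this panel Not Active means under 50% inhibition at 10 µM.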
Data set [6] has as its target T3, Adenosine receptor A3 (Homo sapiens, UniProt P0DMS8).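 Note: radioligand binding assay with AB-MECA serving as the labeled ligand; in other assays of this panel Not Active means under 50% inhibition at 10 µM.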
T3 sequence (P0DMS8 whole entry): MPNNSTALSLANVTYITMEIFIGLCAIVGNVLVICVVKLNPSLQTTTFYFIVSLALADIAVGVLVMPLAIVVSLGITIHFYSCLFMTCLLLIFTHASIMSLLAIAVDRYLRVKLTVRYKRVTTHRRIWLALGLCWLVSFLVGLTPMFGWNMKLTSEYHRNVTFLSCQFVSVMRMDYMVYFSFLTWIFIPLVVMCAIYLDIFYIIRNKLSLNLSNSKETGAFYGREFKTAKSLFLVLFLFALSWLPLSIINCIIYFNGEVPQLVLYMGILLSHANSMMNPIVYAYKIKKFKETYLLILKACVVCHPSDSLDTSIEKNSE
The data set is classed as cell membranes, CHO-K1, Membrane. The conditions noted are these: cho-k1.

Data set [7] deals with Voltage-gated inwardly rectifying potassium channel KCNH2 (Homo sapiens, UniProt Q12809). The conditions noted are these: hek293.
Chain of Voltage-gated inwardly rectifying potassium channel KCNH2 (Q12809 whole entry): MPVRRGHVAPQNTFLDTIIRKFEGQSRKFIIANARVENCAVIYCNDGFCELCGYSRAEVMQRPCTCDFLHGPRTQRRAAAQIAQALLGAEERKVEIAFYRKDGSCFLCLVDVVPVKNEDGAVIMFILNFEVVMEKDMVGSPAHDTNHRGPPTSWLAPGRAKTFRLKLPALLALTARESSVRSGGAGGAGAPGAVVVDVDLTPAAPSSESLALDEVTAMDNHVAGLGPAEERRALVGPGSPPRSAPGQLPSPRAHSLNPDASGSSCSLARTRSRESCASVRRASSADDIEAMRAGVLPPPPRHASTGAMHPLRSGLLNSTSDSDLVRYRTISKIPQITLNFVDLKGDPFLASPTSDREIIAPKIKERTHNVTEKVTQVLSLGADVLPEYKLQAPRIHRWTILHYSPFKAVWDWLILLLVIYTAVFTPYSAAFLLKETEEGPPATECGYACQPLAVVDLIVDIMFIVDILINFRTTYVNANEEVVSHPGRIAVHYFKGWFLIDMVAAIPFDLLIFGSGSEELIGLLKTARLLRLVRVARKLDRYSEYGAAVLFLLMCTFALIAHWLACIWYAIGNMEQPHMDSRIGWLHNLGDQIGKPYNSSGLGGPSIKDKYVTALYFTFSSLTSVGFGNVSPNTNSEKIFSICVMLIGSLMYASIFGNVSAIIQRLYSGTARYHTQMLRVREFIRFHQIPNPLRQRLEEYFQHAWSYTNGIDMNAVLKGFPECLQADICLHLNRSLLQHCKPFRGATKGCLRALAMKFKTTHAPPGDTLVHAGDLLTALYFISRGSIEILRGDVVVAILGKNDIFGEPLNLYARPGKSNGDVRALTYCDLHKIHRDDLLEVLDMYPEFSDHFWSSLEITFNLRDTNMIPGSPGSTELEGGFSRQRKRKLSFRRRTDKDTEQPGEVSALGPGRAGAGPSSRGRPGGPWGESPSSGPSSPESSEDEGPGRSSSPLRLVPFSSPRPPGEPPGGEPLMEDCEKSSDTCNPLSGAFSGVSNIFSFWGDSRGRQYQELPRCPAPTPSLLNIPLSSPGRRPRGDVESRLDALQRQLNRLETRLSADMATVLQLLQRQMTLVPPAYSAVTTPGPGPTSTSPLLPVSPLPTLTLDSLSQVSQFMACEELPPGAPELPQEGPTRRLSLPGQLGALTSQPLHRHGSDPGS

Chain of Melanocortin receptor 4 (P32245 whole entry): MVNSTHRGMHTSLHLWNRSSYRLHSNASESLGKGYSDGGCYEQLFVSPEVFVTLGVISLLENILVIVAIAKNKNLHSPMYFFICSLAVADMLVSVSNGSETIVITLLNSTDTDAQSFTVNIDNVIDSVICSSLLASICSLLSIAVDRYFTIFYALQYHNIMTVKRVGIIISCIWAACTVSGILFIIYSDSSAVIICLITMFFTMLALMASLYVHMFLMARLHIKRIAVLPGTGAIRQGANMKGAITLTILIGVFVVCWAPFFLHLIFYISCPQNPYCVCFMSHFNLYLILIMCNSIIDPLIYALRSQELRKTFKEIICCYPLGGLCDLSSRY

Consider `Clc1ccccc1CN1CCc2sccc2C1` [TICLOPIDINE], for which the IC50 result in data set [1], in data set [2], in data set [3], in data set [4], in data set [5] (insect cells) and in data set [6] was “Not Active” in each case. For the same compound, the IC50 result in data set [7] was “Not Active”. Besides, the Ki entry in data set [1] and in data set [7] was “Not Active” in each case.

On to `NC1CCN(c2nc3c(cc2F)c(=O)c(C(=O)O)cn3-c2ccc(F)cc2F)C1` (centres undefined) [TOSUFLOXACIN], for which the IC50 result in data set [1], in data set [2], in data set [3], in data set [4], in data set [5] (insect cells) and in data set [6] was “Not Active” throughout. Besides, the IC50 result in data set [7] is “Not Active”. Also, the Ki result in data set [1] and in data set [7] was “Not Active” in each case.

In the case of `O=C(Nc1ccc(Br)cc1)c1cc(Br)cc(Br)c1O` [TRIBROMSALAN], the IC50 entry in data set [1] was “Not Active”; in data set [2] it was “Not Active”; in data set [3] it was “Not Active”; in data set [4], “Not Active”; in data set [5] (read-out: IC50), 5.97 µM; in data set [6], “Not Active”. For the same compound, the IC50 result in data set [7] was “Not Active”. For the same compound, the Ki entry in data set [1] and in data set [7] was “Not Active” each time.

On to `CC(c1cc2ccccc2s1)N(O)C(N)=O` (centres undefined) [ZILEUTON], for which the IC50 result in data set [1], in data set [2], in data set [3], in data set [4], in data set [5] (insect cells) and in data set [6] was “Not Active” in each case. In data set [7], the IC50 result is given as “Not Active”. Also, the Ki entry in data set [1] and in data set [7] was “Not Active” each time.

For the compound MANGANESE CHLORIDE ANHYDROUS, the IC50 result in data set [1], in data set [2], in data set [3], in data set [4], in data set [5] (insect cells) and in data set [6] was “Not Active” throughout. Also, the IC50 entry in data set [7] was “Not Active”. In addition, the Ki result in data set [1], in data set [2], in data set [3], in data set [4], in data set [5] (insect cells) and in data set [6] was “Not Active” throughout. Moreover, the Ki entry in data set [7] is recorded as “Not Active”.

As for SODIUM ORTHOVANAD, the IC50 result in data set [1], in data set [2], in data set [3], in data set [4], in data set [5] (insect cells) and in data set [6] was “Not Active” each time. The half-inhibitory concentration (IC50) result in data set [7] is listed as “Not Active”. Moreover, the Ki result in data set [1], in data set [2], in data set [3], in data set [4], in data set [5] (insect cells) and in data set [6] was “Not Active” each time. The Ki result in data set [7] is “Not Active”.
